What follows are compounds tested against T1, δ-opioid (Mus musculus, UniProt P32300) (assay: δ-opioid antagonism against DPDPE in mouse vas deferens (MVD)). Conditions: not given.
T1 construct: Each of the vas deferens isolated from the mice was hung in a Magnus tube; from tissue; host or cells: isolated vas deferens of male ddy strain mice
Format: biochemical, mouse (male ddy strain)
Description: Using mouse vas deferens (MVD), antagonistic compounds were examined for antagonism against a δ-opioid agonist DPDPE, and agonistic compounds were examined for inhibitory activity against MVD contraction by electric stimulation, and for antagonism by a δ-opioid antagonist NTI.
Male ddy strain mice were used in this experiment. Each of the vas deferens isolated from the mice was hung in a Magnus tube which was filled with a Krebes-Henseleit solution (NaCl […]; KCl 4.7 mM; CaCl2 2.5 mM; KH2 PO4 1.1 mM; NaHCO3 25 mM; glucose 11 mM), and aerated with a gas of 5% carbon dioxide and 95% oxygen and maintained at 37° C. Electric stimulation was applied through upper and lower ring-shaped platinum electrodes at 0.1 Hz and 5.0 mS. Tissue contraction was recorded on a polygraph using an isometric transducer.
Initially, DPDPE was added in a cumulative manner to determine the IC50 value (concentration for 50% inhibition of contraction induced by electric stimulation). Next, 100 nM of a sample compound was added to the system beforehand, and 20 minutes later, DPDPE was added in a cumulative manner. According to the above procedure, the ratio of the IC50 value of DPDPE in the presence of the sample compound to that in the absence of it was determined, and the pA2 value was calculated in accordance with the Schild, et al.'s method [Schild, H. O., Br. J. Pharamacol. Chamother. 4, 277 (1949)].

T1 sequence (P32300 whole entry): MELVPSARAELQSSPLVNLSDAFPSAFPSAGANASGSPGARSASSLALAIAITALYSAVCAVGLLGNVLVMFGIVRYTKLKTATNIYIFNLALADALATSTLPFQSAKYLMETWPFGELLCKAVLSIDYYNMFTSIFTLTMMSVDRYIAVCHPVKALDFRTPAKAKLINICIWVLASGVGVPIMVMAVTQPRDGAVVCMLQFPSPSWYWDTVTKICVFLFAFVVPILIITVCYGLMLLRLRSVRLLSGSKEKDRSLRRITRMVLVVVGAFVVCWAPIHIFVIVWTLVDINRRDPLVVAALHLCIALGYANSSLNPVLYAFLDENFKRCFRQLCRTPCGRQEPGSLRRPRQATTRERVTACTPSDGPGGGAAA

Point of comparison: Oc1ccc2c3c1O[C@H]1c4c(c5cc(Cl)cc6c5n4CCC6)C[C@@]4(O)[C@@H](C2)N(CC2CC2)CC[C@]314 [Compound 8, 17-cyclopropylmethyl-6,7-didehydro-4,5α-epoxy-3,14β-dihydroxy-1',7'-trimethylene-5'-chloro-6,7,2',3'-indolomorphinan], Kb 5.01 nM. Against it:
- COc1cc2c3c(c1)c1c(n3CCC2)[C@@H]2Oc3c(O)ccc4c3[C@@]23CCN(CC2CC2)[C@H](C4)[C@]3(O)C1 [Compound 19, 17-cyclopropylmethyl-6,7-didehydro-4,5α-epoxy-3,14β-dihydroxy-1',7'-trimethylene-5'-methoxy-6,7,2',3'-indolomorphinan] — 5-fold lower, 1 nM
- Oc1ccc2c3c1O[C@H]1c4c(c5cc(Br)cc6c5n4CCC6)C[C@@]4(O)[C@@H](C2)N(CC2CC2)CC[C@]314 [Compound 20, 17-cyclopropylmethyl-6,7-didehydro-4,5α-epoxy-3,14β-dihydroxy-1',7'-trimethylene-5'-bromo-6,7,2',3'-indolomorphinan] — within 1.5-fold, 3.98 nM
- Oc1ccc2c3c1O[C@H]1c4c(c5cccc6c5n4CCCCC6)C[C@@]4(O)[C@@H](C2)N(CC2CC2)CC[C@]314 [Compound 21, 17-cyclopropylmethyl-6,7-didehydro-4,5α-epoxy-3,14β-dihydroxy-1',7'-pentamethylene-6,7,2',3'-indolomorphinan] — 2-fold higher, 10 nM
- Oc1ccc2c3c1O[C@H]1c4c(c5cccc6c5n4CCS6)C[C@@]4(O)[C@@H](C2)N(CC2CC2)CC[C@]314 [Compound 22, 17-cyclopropylmethyl-6,7-didehydro-4,5α-epoxy-3,14β-dihydroxy-7',1'-epithioethano-6,7,2',3'-indolomorphinan] — 6.3-fold lower, 0.794 nM
- Oc1ccc2c3c1O[C@H]1c4c(c5cccc6c5n4CCO6)C[C@@]4(O)[C@@H](C2)N(CC2CC2)CC[C@]314 [Compound 23, 17-cyclopropylmethyl-6,7-didehydro-4,5α-epoxy-3,14β-dihydroxy-7',1'-epoxyethano-6,7,2',3'-indolomorphinan] — 32-fold lower, 0.158 nM
- Oc1ccc2c3c1O[C@H]1c4c(c5c(C(F)(F)F)ccc6c5n4CCC6)C[C@@]4(O)[C@@H](C2)N(CC2CC2)CC[C@]314 [Compound 24, 17-cyclopropylmethyl-6,7-didehydro-4,5α-epoxy-3,14β-dihydroxy-1',7'-trimethylene-4'-trifluoromethyl-6,7,2',3'-indolomorphinan] — 2-fold higher, 10 nM
- CC1(C)Cc2cccc3c4c(n(c23)C1)[C@@H]1Oc2c(O)ccc3c2[C@@]12CCN(CC1CC1)[C@H](C3)[C@]2(O)C4 [Compound 26, 17-cyclopropylmethyl-6,7-didehydro-4,5α-epoxy-3,14β-dihydroxy-1',7'-(2,2-dimethylpropano)-6,7,2',3'-indolomorphinan] — 1.6-fold lower, 3.16 nM
- COc1ccc2c3c1c1c(n3CCC2)[C@@H]2Oc3c(O)ccc4c3[C@@]23CCN(CC2CC2)[C@H](C4)[C@]3(O)C1 [Compound 27, 17-cyclopropylmethyl-6,7-didehydro-4,5α-epoxy-3,14β-dihydroxy-1',7'-trimethylene-4'-methoxy-6,7,2',3'-indolomorphinan] — 2.5-fold higher, 12.6 nM
- C=CCN1CC[C@]23c4c5ccc(O)c4O[C@H]2c2c(c4cccc6c4n2CCC6)C[C@@]3(O)[C@H]1C5 [Compound 30, 17-allyl-6,7-didehydro-4,5α-epoxy-3,14β-dihydroxy-1',7'-trimethylene-6,7,2',3'-indolomorphinan] — 2.5-fold higher, 12.6 nM
- CO[C@@]12Cc3c(n4c5c(cccc35)CCC4)[C@@H]3Oc4c(O)ccc5c4[C@@]31CCN(CC1CC1)[C@@H]2C5 [Compound 66, 17-cyclopropylmethyl-6,7-didehydro-4,5α-epoxy-3-hydroxy-14β-methoxy-1',7'-trimethylene-6,7,2',3'-indolomorphinan] — 16-fold lower, 0.316 nM

Same assay, conditions: MVD; 100 nM sample compound added 20 minutes before cumulative DPDPE; Schild method

Oc1ccc2c3c1O[C@H]1c4c(c5cccc6c5n4CC6)C[C@@]4(O)[C@@H](C2)N(CC2CC2)CC[C@]314 [Compound 1, 17-Cyclopropylmethyl-6,7-didehydro-4,5α-epoxy-3,14β-dihydroxy-1',7'-ethylene-6,7,2',3'-indolomorphinan] gave a pA2 of 9.2.

What follows are compounds tested on capsaicin-induced cough (assay: Antitussive action in rat, capsaicin-induced cough). Conditions: ip, 0.5 h, dosage for 50% cough inhibition, intraperitoneal, 10% DMSO solution, 30 minutes after administration.
Format: in vivo
Description: Evaluation of Antitussive Action in Rat as a Model for Capsaicin-Induced Cough
Cough was induced by forcing rats to inhale capsaicin (60 μM) which was nebulized by an ultrasonic nebulizer, and fed to caps over the rats' heads through silicone tubes by a respirator. Capsaicin was fed for inhalation at a rate of 70 times/min. and 10 ml each time.
Two hundred and seventy minutes before the drug administration, capsaicin was inhaled for 5 minutes, and inducement of coughing was confirmed during this period. Thirty minutes after the drug administration, capsaicin was inhaled for 5 minutes, and the number of induced coughs during capsaicin inhalation was counted. Antitussive effect was evaluated by determining an inhibitory ratio, namely, the ratio of the number of coughs after the drug administration to that before the drug administration. Capsaicin was dissolved in saline. Each drug was dissolved in a 10% DMSO solution and intraperitoneally administered. The effect of the drug is expressed with an ED50 value which is the dosage for 50% cough inhibition

Point of comparison: COc1ccc2c3c1O[C@H]1c4c(c5cccc6c5n4CCCC6)C[C@@]4(O)[C@@H](C2)N(CC2CC2)CC[C@]314 [Compound 15, 17-cyclopropylmethyl-6,7-didehydro-4,5α-epoxy-3-methoxy-14β-hydroxy-1',7'-tetramethylene-6,7,2',3'-indolomorphinan], ED50 9.68 µg/kg. Against it:
- Oc1ccc2c3c1O[C@H]1c4c(c5cccc6c5n4CC6)C[C@@]4(O)[C@@H](C2)N(CC2CC2)CC[C@]314 [Compound 1, 17-Cyclopropylmethyl-6,7-didehydro-4,5α-epoxy-3,14β-dihydroxy-1',7'-ethylene-6,7,2',3'-indolomorphinan] — within 1.5-fold, 9.14 µg/kg
- COc1ccc2c3c1O[C@H]1c4c(c5ccc(OC)c6c5n4CCC6)C[C@@]4(O)[C@@H](C2)N(CC2CC2)CC[C@]314 [Compound 12, 17-cyclopropylmethyl-6,7-didehydro-4,5α-epoxy-3,6'-dimethoxy-14β-hydroxy-1',7'-trimethylene-6,7,2',3'-indolomorphinan] — 3.9-fold lower, 2.5 µg/kg
- COc1ccc2c3c1O[C@H]1c4c(c5cc(C)cc6c5n4CCC6)C[C@@]4(O)[C@@H](C2)N(CC2CC2)CC[C@]314 [Compound 13, 17-cyclopropylmethyl-6,7-didehydro-4,5α-epoxy-3-methoxy-14β-hydroxy-1',7'-trimethylene-5'-methyl-6,7,2',3'-indolomorphinan] — 1.8-fold lower, 5.33 µg/kg
- COc1ccc2c3c1O[C@H]1c4c(c5c(C)ccc6c5n4CCC6)C[C@@]4(O)[C@@H](C2)N(CC2CC2)CC[C@]314 [Compound 14, 17-cyclopropylmethyl-6,7-didehydro-4,5α-epoxy-3-methoxy-14β-hydroxy-1',7'-trimethylene-4'-methyl-6,7,2',3'-indolomorphinan] — 2.5-fold higher, 23.8 µg/kg
- COc1ccc2c3c1O[C@H]1c4c(c5cc(F)cc6c5n4CCC6)C[C@@]4(O)[C@@H](C2)N(CC2CC2)CC[C@]314 [Compound 16, 17-cyclopropylmethyl-6,7-didehydro-4,5α-epoxy-3-methoxy-14β-hydroxy-1',7'-trimethylene-5'-fluoro-6,7,2',3'-indolomorphinan] — 2-fold lower, 4.73 µg/kg
- COc1ccc2c3c1O[C@H]1c4c(c5cccc6c5n4Cc4ccccc4-6)C[C@@]4(O)[C@@H](C2)N(CC2CC2)CC[C@]314 [Compound 17, 17-cyclopropylmethyl-6,7-didehydro-4,5α-epoxy-3-methoxy-14β-hydroxy-1',7'-(2",3"-benzotrimethylene)-6,7,2',3'-indolomorphinan] — 1.9-fold lower, 5.02 µg/kg
- COc1ccc2c3c1O[C@H]1c4c(c5cc(Cl)cc6c5n4CCC6)C[C@@]4(O)[C@@H](C2)N(CC2CC2)CC[C@]314 [Compound 18, 17-cyclopropylmethyl-6,7-didehydro-4,5α-epoxy-3-methoxy-14β-hydroxy-1',7'-trimethylene-5'-chloro-6,7,2',3'-indolomorphinan] — within 1.5-fold, 13.4 µg/kg
- C=CCN1CC[C@]23c4c5ccc(OC)c4O[C@H]2c2c(c4cccc6c4n2CCC6)C[C@@]3(O)[C@H]1C5 [Compound 34, 17-allyl-6,7-didehydro-4,5α-epoxy-3-methoxy-14β-hydroxy-1',7'-trimethylene-6,7,2',3'-indolomorphinan] — 8.8-fold lower, 1.1 µg/kg
- COc1ccc2c3c1O[C@H]1c4c(c5cc(Br)cc6c5n4CCC6)C[C@@]4(O)[C@@H](C2)N(CC2CC2)CC[C@]314 [Compound 35, 17-cyclopropylmethyl-6,7-didehydro-4,5α-epoxy-3-methoxy-14β-hydroxy-1',7'-trimethylene-5'-bromo-6,7,2',3'-indolomorphinan] — 2.2-fold higher, 21.2 µg/kg
- COc1ccc2c3c1O[C@H]1c4c(c5cccc6c5n4CCC6(C)C)C[C@@]4(O)[C@@H](C2)N(CC2CC2)CC[C@]314 [Compound 40, 17-cyclopropylmethyl-6,7-didehydro-4,5α-epoxy-3-methoxy-14β-hydroxy-1',7'-(1,1-dimethylpropano)-6,7,2',3'-indolomorphinan] — 3.9-fold lower, 2.46 µg/kg
- COc1ccc2c3c1O[C@H]1c4c(c5ccc6cccc7c6c5n4CC7)C[C@@]4(O)[C@@H](C2)N(CC2CC2)CC[C@]314 [Compound 42, 17-cyclopropylmethyl-6,7-didehydro-4,5α-epoxy-3-methoxy-14β-hydroxy-1',3"-ethylene-6',7'-benzo-6,7,2',3'-indolomorphinan] — 2.2-fold higher, 21.1 µg/kg
- COc1ccc2c3c1O[C@H]1c4c(c5c(OC)ccc6c5n4CCC6)C[C@@]4(O)[C@@H](C2)N(CC2CC2)CC[C@]314 [Compound 44, 17-cyclopropylmethyl-6,7-didehydro-4,5α-epoxy-3,4'-dimethoxy-14β-hydroxy-1',7'-trimethylene-6,7,2',3'-indolomorphinan] — within 1.5-fold, 10.9 µg/kg

From US5849731A, “Indole derivatives and medical application thereof” (Toray Industries, Inc., priority 1995, dated 1998)
